This is an account of results in article PMC10937738, “Evaluation of the photoprotective and antioxidant potential of an avobenzone derivative” (Frontiers in Physiology, 2024).

Several values for one entry are separate records, joined by “and”; a condition that tells them apart may be missing. Equal values may be shown once. Entries after “also recorded” stand apart in the source; their conditions may differ. Some results are limits rather than exact numbers.

The test system of series [1] is HaCaT keratinocytes. The series is described as follows: Cell viability of HaCaT keratinocytes (NRU assay). The class given is cell-based. The note with it: SDS 100 μg/mL; for Cytotoxicity for HaCaT cells: avobenzone derivative 31.25–1,000 μg/mL, vs untreated control, 70% threshold ISO 10993-5. On the procedure:
Prior to the beginning of the assay, cell viability was evaluated to exclude the possibility that the decrease in fluorescence intensity was related to cell death and not to antioxidant activity. HaCaT keratinocytes were cultured in DMEM supplemented with fetal bovine serum (10%), pyruvate (1 mM), penicillin (100 IU/mL) and streptomycin (100 μg/mL), seeded in 96-well plates (1 × 10^5 cells/well) and, 24 h later, treated with avobenzone derivative (31,25–1000 μg/mL; constant factor: 2). Cell viability was determined using the NRU assay ([Gaspar et al., 2013]; [Rangel et al., 2020]) and sodium dodecyl sulfate (SDS) was used as a positive control (100 μg/mL). Untreated cells absorbance at 540 nm were considered 100% of cell viability to calculate the percentage relative to each sample tested.

Details of series [2]: method as in Santana Reis et al., 2014. The note with it: method not stated; ref Santana Reis et al., 2014; cited from earlier work.
Series [3] in a line: Photoreactivity ROS assay (OECD TG 495): singlet oxygen (SO) and superoxide anion (SA) generation. The protocol:
The photoreactivity assay was conducted to detect the generation of oxygen singlet (^1O2; SO) and superoxide anion (O2 ^−•; SA), according to OECD TG n° 495, as described in [Freitas et al. (2015)]. […] SO generation was detected by spectrophotometric measurement of p-nitrosodimethylaniline (RNO) bleaching, followed by decreased absorbance of RNO at 440 nm and SA generation was detected by observing the reduction of nitroblue tetrazolium (NBT) at 560 nm. The assay was performed in triplicate in three independent experiments.
According to the ROS Assay protocol ([OECD, 2019b]), the compound’s photoreactivity is classified according to Table 2.

The test system of series [4] is 3T3 BALB/c fibroblasts. The series is described as follows: 3T3 Neutral red uptake phototoxicity test (3T3 NRU PT, OECD TG 432). Type of series: cell-based. Particulars: UVA 9 J/cm^2. On the procedure:
The 3t3 Neutral red uptake phototoxicity (3t3 NRU PT) test was performed in accordance to OECD TG n° 432 ([OECD, 2019a]) using 3T3 BALB/c fibroblasts cells from the Cell Bank of Rio de Janeiro (Rio de Janeiro, Brazil). Fibroblasts were cultured in DMEM supplemented with calf serum (10% v/v), L-glutamine (4 mM) and antibiotic mixture (penicillin, streptomycin and amphotericin B) and incubated at 37°C with 5% CO2. […] The initial concentration for the proportion 5:7:5 was 100 μg/mL for octyl methoxycinnamate, 71.4 μg/mL for avobenzone, and 71.4 μg/mL for avobenzone derivative. These preparations were also diluted in PBS (pH 7.2) to generate samples with 8 different concentrations in a geometric progression (constant factor = 1.47). The highest final concentration of DMSO was 1%. Fibroblasts were seeded at a density of 10^4 cell/well and after 24 h of incubation (5% CO2; 37°C), they were treated with 8 different concentrations of the combinations in the wells in sextuplicate, incubated for 1 h (5% CO2; 37°C) and irradiated with UVA radiation of 9 J/cm^2. […]
Cell viability was measured using the NRU assay with the uptake of the vital dye neutral red into cellular lysosomes. […] After measuring the absorbance of both plates at 540 nm using a microplate reader (SynergyTM 2, Biotek), all data were analyzed by Phototox Software 2.0 (ZEBET, Germany), and the mean photo effect (MPE) was calculated. […]

A short description of series [5]: Photostability by UV spectrophotometry, solutions in isopropanol. The class given is physicochemical. On the procedure:
To assess the photoprotective potential of the new UV filter’s derivative, as well as its combination with avobenzone and octyl methoxycinnamate (Cb), a photostability assay was conducted irradiating all samples at a dose of 27,6 J/cm^2 emitted by a UVA lamp (Philips UVA Actinic BL/10, Netherlands) ([ICH, 1996]; [1998]), while the negative controls were kept in a dark place. The derivative was tested at 100 μg/mL in isopropanol and the combinations Cb (avobenzone, octyl methoxycinnamate and avobenzone derivative) and Cc (avobenzone, octyl methoxycinnamate and ethylhexyl methoxycrylene were tested with a proportion of 4:8:5 (w/w), where the initial concentrations were 100 μg/mL for octyl methoxycinnamate, 50 μg/mL for avobenzone and 62.5 μg/mL for avobenzone derivative/ethylhexyl methoxycrylene. Solutions were analyzed by spectrophotometry in the 280–400 nm range. The results are expressed as a percentage of the area of irradiated samples related to the area of non-irradiated samples according to [Gaspar and Maia Campos (2006)] and [Tavares et al. (2020)].

Series [6] relates to HaCaT keratinocytes. Briefly: Protection against intracellular UVA-induced ROS production (DCFH2-DA probe), HaCaT monolayer. Type of series: cell-based. Particulars: UVA 4 J/cm^2. The protocol:
To evaluate intracellular ROS production, such as hydroxyl radical, hydrogen peroxide, nitrite and carbonate anion, the probe 2,7-dichlorodihydrofluorescein-diacetate (DCFH2-DA) was used. This probe can undergo hydrolysis by cellular esterases forming the compound DCFH, that can be converted by ROS into the fluorescent compound […] (DCF), measured at the end of the assay ([Kalyanaraman et al., 2012]; [Alam et al., 2013]). The assay was performed under the same conditions (cell type, density and exposure times) as the evaluation of cell viability in immortalized HaCaT keratinocytes.
In detail, 1 × 10^5 cells/well of HaCaT keratinocytes were seeded in 96-well plates and incubated for 24 h at 37°C in a 5% CO2 atmosphere. Then, cells were treated with the avobenzone derivative (31,25–1,000 μg/mL; constant factor: 2) for 1 h and the probe DCFH2-DA (10 µM) for 30 min, followed by 4 J/cm^2 of UVA radiation (Solar simulator Dr. Hönle type SOL-500, Planegg, Germany). This UV waveband was chosen because UVA and visible light are the most relevant radiations for ERO production ([Zastrow et al., 2009]; [Vandersee et al., 2015]). Quercetin (10 μg/mL) and norfloxacin (100 μg/mL) were used as antioxidant and pro-oxidant controls, respectively. The plates were measured using a microplate reader (Synergy™ HT, BioTek, United States) at 485 nm excitation and 528 nm emission. Results are expressed as a percentage of fluorescence in relation to the irradiated control, considered 100%.

Series [7] relates to reconstructed human skin (RHS). Briefly: UVA-induced intracellular ROS production (DCFH2-DA probe) in reconstructed human skin model. The class given is cell-based. Particulars: 200 μg/mL, 25 µL topical 1 h; UVA 10 J/cm^2. The protocol:
In-house RHS models were prepared on 24-well cell culture inserts, with primary human fibroblasts and keratinocytes from foreskin (pooled from three donors) after approval by the Ethics Committee in Research Involving Human Beings—School of Pharmaceutical Sciences of Ribeirão Preto—USP (CAAE n° 35685220.3.0000.5403; Protocol CEP/FCFRP n° 551).
Primarily, the dermal compartment consisted of collagen type I (Corning®) and 1.14 × 10^5 normal human fibroblasts that were seeded into the insert (0.4 µm pore size; ThinCert™, Greiner Bio-One GmbH, Frickenhausen—Germany) and incubated overnight. After 20 h, 3.7 × 10^5 normal human keratinocytes were seeded on the top of the dermis mixture and kept submerged in an in-house prepared culture medium for 24 h, so the cells could form a monolayer. […]
Immediately after irradiation and washing with PBS, the tissues were frozen in liquid nitrogen and 8 µm histological sections were obtained in a cryostat. Pictures were taken in an inverted Ti-S microscope (Nikon Instruments Inc., Holland), 488 nm, using 100 ms of exposure intensity and analyzed by ImageJ software ([Rasmussen et al., 2010]; [Marionnet et al., 2014]). Results of fluorescence intensity were normalized to area/pixels and expressed as percent fluorescence compared to untreated irradiated (NT + UV) control, considered 100%.

Series [8] in a line: DPPH free radical scavenging. Particulars: 30 min in the dark, absorbance 517 nm. On the procedure:
The DPPH free radical scavenging method was conducted according to [Martins et al. (2016)], with modifications. This assay is based on the reduction of the 2,2-diphenyl-1-picrylhydrazyl radical by the antioxidant agent, acting as a hydrogen donor. DPPH is a stable radical due to its molecular conformation, capable of reacting with hydrogen/electron donors, generating its reduced form, accompanied by a reduction in its absorbance (517 nm) ([Kedare and Singh, 2011]). The antioxidant activity is then determined by monitoring the change in the color of the reaction medium, changing from violet to yellow ([Pisoschi and NEgulescu, 2012]).
In a 96-well plate, 100 µL of each sample were diluted in methanol. The concentrations used for avobenzone derivative under study were […] (constant factor: 2) and quercetin was used as a positive control for the test (14–0.109 μg/mL, constant factor: 2). The plate was covered and kept in a dark place for 30 min at room temperature. The absorbance reading was performed at 517 nm using a microplate reader (Synergy™ 2#, Biotek, United States), and the results obtained were used to calculate the inhibition percentages. […] The half maximum inhibitory concentration (IC50-DPPH) was calculated using the linear equation by replacing the value of y with 50 ([Chen et al., 2013]).

Setting [9] is: solutions in isopropanol, UVA dose 27,6 J/cm^2, area under curve of irradiated vs non-irradiated (100%).

By LogP is commonly meant the decadic logarithm of the partition coefficient of the neutral form, usually between octanol and water.

Regarding `CCCCCCCCCCCCOS(=O)(=O)[O-].[Na+]` [SDS, sodium dodecyl sulfate], the Cell viability in series [1] (untreated cells = 100%) is given as less than 70%. For the same compound, in series [1], the “Cytotoxicity for HaCaT cells” value is “cytotoxic”.
As to `O=C(N/N=C/c1ccc(O)cc1)c1ccc(O)cc1` [avobenzone derivative, (E)-4-hidroxi-N’-(4-hydroxybenzylidene)benzohydrazide], the LogP in series [2] is 1.32 ± 0.52. Moreover, the “Classification (photoreactivity)” value in series [3] is “Non-photoreactive”. The “Prediction model (phototoxicity)” value in series [4] (OECD TG 432) is given as “non phototoxic; also recorded: Non-Phototoxic”. In addition, the “Cytotoxicity for HaCaT cells” value in series [1] is listed as “not cytotoxic”. Also, in series [5] (setting [9]), the “Remaining absorption values after irradiation (%) UVA” value worked out at 97.7 ± 2.5%. Further, the “Remaining absorption values after irradiation (%) UVB” value in series [5] (setting [9]) worked out at 97.8 ± 2.1%. Also, the Stability classification result in series [5] (solutions, irradiated vs non-irradiated pair (p < 0.05 = photounstable)) is “Photostable”. Also, the “Reduction in ROS generation compared to NT + UV” value is listed as 37% in series [6] (125 μg/mL), 31% in series [6] (250 μg/mL), 58% in series [6] (500 μg/mL) and 30.7% in series [7]. Moreover, the “ROS values higher than NT + UV (possible pro-oxidant effect)” value in series [6] (1,000 μg/mL) stood at 5%. Further, the “IC50 (DPPH)” value in series [8] is 18.2 ± 10.2 µg/mL.
Turning to `CC(C(=O)O)c1cccc(C(=O)c2ccccc2)c1` (stereo not drawn) [Ketoprofen, ketoprofen], the “SA (superoxide anion generation, NBT reduction at 560 nm)” value in series [3] (avobenzone derivative 1.0 mM, mean ± SEM, n = 3) was found to be 116 ± 20.6.
With `N[C@@H](Cc1c[nH]cn1)C(=O)O` [L-histidine], in series [3], the “Classification (photoreactivity)” value is listed as “Non-photoreactive”.
For `CCn1cc(C(=O)O)c(=O)c2cc(F)c(N3CCNCC3)cc21` [Norfloxacin, reference compound], in series [4] (Phototox Software 2.0, one value per independent experiment (two)), the “MPE (mean photo effect)” value was 0.568 and 0.520. For the same compound, the “Increase of ROS production compared to NT + UV” value in series [6] (100 μg/mL) is on record as “approx. 46%”.
In the case of `O=c1c(O)c(-c2ccc(O)c(O)c2)oc2cc(O)cc(O)c12` [quercetin, reference compound], the “Decrease of ROS production compared to NT + UV” value in series [6] (10 μg/mL) is listed as “approx. 67%”. Also, the “IC50 (DPPH)” value in series [8] is 2.85 ± 1.03 µg/mL.
